Test results: patent US20260027068A1, “METHODS OF ADM[…]-KETAMINE” (Perception Neuroscience, Inc., priority 2022, published 2026)

Test system: subjects with TRD
Experiment: Adverse events (TEAEs, SAEs) in the TRD study
Format: in vivo, human
Conditions: 60 mg (n = 35)
Text: The definitions of an AE and SAE can be found in Section F. AEs were reported by the subject (or, when appropriate, by a caregiver, surrogate, or the subject's legally authorized representative). The Investigator and any designees were responsible for detecting, documenting, and recording events that meet the definition of an AE or SAE and remained responsible for following up AEs that were serious, considered related to the study treatment or study procedures, or that caused the subject to discontinue from the study.
All AEs were collected from the signing of the ICF until the second follow-up visit (Day 15) at the time points specified in the Schedule of Activities (Section C). Medical occurrences that began before the start of study treatment but after obtaining informed consent were recorded on the Medical History/Current Medical Conditions section of the CRF, not the AE section. All SAEs were recorded and reported to the Sponsor or designee within 24 hours as indicated in Section F. The Investigator submitted any updated SAE data to the Sponsor or designee within 24 hours of it being available. Investigators were not obligated to actively seek AE or SAE information after the conclusion of study participation. However, if the Investigator learns of any SAE, including a death, at any time after a subject has been discharged from the study, and he/she considers the event to be reasonably related to the study treatment or study participation, the Investigator must promptly notify the Sponsor or designee. The method of recording, evaluating, and assessing the causality of AEs and SAEs and the procedures for completing and transmitting SAE reports are provided in Section F.
An AE is any untoward medical occurrence in a patient or subject, temporally associated with the use of study treatment, whether or not considered related to the study treatment. An AE can therefore be any unfavorable and unintended sign (including an abnormal laboratory finding), symptom, or disease (new or exacerbated) temporally associated with the use of study treatment.
If an event is not an AE per the definition above, then it cannot be an SAE even if serious conditions are met (e.g., hospitalization for signs/symptoms of the disease under study). A Serious Adverse Event (SAE) is defined as any untoward medical occurrence that, at any dose: a) results in death; b) is life-threatening; c) requires inpatient hospitalization or prolongation of existing hospitalization; d) results in persistent disability/incapacity; or e) is a congenital anomaly/birth defect. The term “life-threatening” in the definition of “serious” refers to an event in which the subject was at risk of death at the time of the event. […] In general, hospitalization signifies that the subject has been detained (usually involving at least an overnight stay) at the hospital or emergency ward for observation and/or treatment that would not have been appropriate in the physician's office or outpatient setting. Complications that occur during hospitalization are AEs. If a complication prolongs hospitalization or fulfills any other serious criteria, the event is serious. When in doubt as to whether “hospitalization” occurred or was necessary, the AE should be considered serious. […] The term disability means a substantial disruption of a person's ability to conduct normal life functions.
(MedDRA; Version 23.0 or higher). Treatment-emergent adverse events (TEAEs) are AEs with onset or worsening after the start of study treatment. The AE summaries will be primarily based on TEAEs. The number and percentage of subjects with TEAEs will be summarized by treatment group, system organ class, and preferred term for all TEAEs, treatment-related TEAEs, SAEs, serious TEAEs, severe TEAEs, TEAEs of special interest, and all TEAEs leading to study drug discontinuation. All TEAEs will be further summarized by maximum severity and causality. The TEAEs of special interest will be identified in the SAP. […]

CN[C@@]1(c2ccccc2Cl)CCCCC1=O [PCN 101]
18: Number of subjects with any treatment-emergent adverse events
5: TEAE SOC Gastrointestinal disorders: number of subjects | TEAE SOC Psychiatric disorders: number of subjects
(51): Subjects with any treatment-emergent adverse events: (%) of subjects
0: TEAE PT Aversion: number of subjects | TEAE PT Balance disorder: number of subjects | TEAE PT Bruxism: number of subjects | TEAE PT Diarrhoea: number of subjects | TEAE PT Dissociation: number of subjects | TEAE PT Dyspnoea exertional: number of subjects | TEAE PT Haematuria: number of subjects | TEAE PT Hyperacusis: number of subjects | TEAE PT Hyperhidrosis: number of subjects | TEAE PT Hypoaesthesia: number of subjects | TEAE PT Influenza like illness: number of subjects | TEAE PT Limb discomfort: number of subjects | TEAE PT Logorrhoea: number of subjects | TEAE PT Memory impairment: number of subjects | TEAE PT Muscle strain: number of subjects | TEAE PT Rhinorrhoea: number of subjects | TEAE PT Sensory disturbance: number of subjects | TEAE PT Sinusitis: number of subjects | TEAE PT Slow speech: number of subjects | TEAE PT Tachycardia: number of subjects | TEAE PT Urinary tract infection: number of subjects | TEAE PT Venous injury: number of subjects | TEAE PT Vertigo: number of subjects | TEAE PT Vessel puncture site erythema: number of subjects | TEAE PT Visual impairment: number of subjects | TEAE SOC Ear and labyrinth disorders: number of subjects | TEAE SOC Infections and infestations: number of subjects | TEAE SOC Renal and urinary disorders: number of subjects
(3): TEAE PT Alopecia: (%) of subjects | TEAE PT Blood pressure increased: (%) of subjects | TEAE PT Confusional state: (%) of subjects | TEAE PT Defect conduction intraventricular: (%) of subjects | TEAE PT Dry mouth: (%) of subjects | TEAE PT Energy increased: (%) of subjects | TEAE PT Euphoric mood: (%) of subjects | TEAE PT Fatigue: (%) of subjects | TEAE PT Feeling abnormal: (%) of subjects | TEAE PT Hyperphagia: (%) of subjects | TEAE PT Hypoaesthesia oral: (%) of subjects | TEAE PT Increased appetite: (%) of subjects | TEAE PT Infusion site hypoaesthesia: (%) of subjects | TEAE PT Left ventricular hypertrophy: (%) of subjects | TEAE PT Lethargy: (%) of subjects | TEAE PT Muscular weakness: (%) of subjects | TEAE PT Sedation: (%) of subjects | TEAE PT Skin abrasion: (%) of subjects | TEAE PT Smoke sensitivity: (%) of subjects | TEAE PT Throat tightness: (%) of subjects | TEAE PT Time perception altered: (%) of subjects | TEAE PT Vision blurred: (%) of subjects | TEAE SOC Eye disorders: (%) of subjects | TEAE SOC Immune system disorders: (%) of subjects | TEAE SOC Injury, poisoning and procedural complications: (%) of subjects | TEAE SOC Investigations: (%) of subjects | TEAE SOC Metabolism and nutrition disorders: (%) of subjects | TEAE SOC Musculoskeletal and connective tissue disorders: (%) of subjects | TEAE SOC Respiratory, thoracic and mediastinal disorders: (%) of subjects | TEAE SOC Skin and subcutaneous tissue disorders: (%) of subjects
0): TEAE PT Slow speech: (%) of subjects
(40): TEAE SOC Nervous system disorders: (%) of subjects
7: TEAE PT Dizziness: number of subjects
3: TEAE PT Derealisation: number of subjects | TEAE PT Nausea: number of subjects
2: TEAE PT Dysarthria: number of subjects | TEAE PT Feeling drunk: number of subjects | TEAE PT Headache: number of subjects | TEAE PT Paraesthesia: number of subjects | TEAE SOC Cardiac disorders: number of subjects
(11): TEAE PT Somnolence: (%) of subjects | TEAE SOC General disorders and administration site conditions: (%) of subjects
(0): TEAE PT Aversion: (%) of subjects | TEAE PT Balance disorder: (%) of subjects | TEAE PT Bruxism: (%) of subjects | TEAE PT Diarrhoea: (%) of subjects | TEAE PT Dissociation: (%) of subjects | TEAE PT Dyspnoea exertional: (%) of subjects | TEAE PT Haematuria: (%) of subjects | TEAE PT Hyperacusis: (%) of subjects | TEAE PT Hyperhidrosis: (%) of subjects | TEAE PT Hypoaesthesia: (%) of subjects | TEAE PT Influenza like illness: (%) of subjects | TEAE PT Limb discomfort: (%) of subjects | TEAE PT Logorrhoea: (%) of subjects | TEAE PT Memory impairment: (%) of subjects | TEAE PT Muscle strain: (%) of subjects | TEAE PT Rhinorrhoea: (%) of subjects | TEAE PT Sensory disturbance: (%) of subjects | TEAE PT Sinusitis: (%) of subjects | TEAE PT Tachycardia: (%) of subjects | TEAE PT Urinary tract infection: (%) of subjects | TEAE PT Venous injury: (%) of subjects | TEAE PT Vertigo: (%) of subjects | TEAE PT Vessel puncture site erythema: (%) of subjects | TEAE PT Visual impairment: (%) of subjects | TEAE SOC Ear and labyrinth disorders: (%) of subjects | TEAE SOC Infections and infestations: (%) of subjects | TEAE SOC Renal and urinary disorders: (%) of subjects
(14): TEAE SOC Gastrointestinal disorders: (%) of subjects | TEAE SOC Psychiatric disorders: (%) of subjects
53: Number of treatment-emergent adverse events
1: TEAE PT Alopecia: number of subjects | TEAE PT Blood pressure increased: number of subjects | TEAE PT Confusional state: number of subjects | TEAE PT Defect conduction intraventricular: number of subjects | TEAE PT Dry mouth: number of subjects | TEAE PT Energy increased: number of subjects | TEAE PT Euphoric mood: number of subjects | TEAE PT Fatigue: number of subjects | TEAE PT Feeling abnormal: number of subjects | TEAE PT Hyperphagia: number of subjects | TEAE PT Hypoaesthesia oral: number of subjects | TEAE PT Increased appetite: number of subjects | TEAE PT Infusion site hypoaesthesia: number of subjects | TEAE PT Left ventricular hypertrophy: number of subjects | TEAE PT Lethargy: number of subjects | TEAE PT Muscular weakness: number of subjects | TEAE PT Sedation: number of subjects | TEAE PT Skin abrasion: number of subjects | TEAE PT Smoke sensitivity: number of subjects | TEAE PT Throat tightness: number of subjects | TEAE PT Time perception altered: number of subjects | TEAE PT Vision blurred: number of subjects | TEAE SOC Eye disorders: number of subjects | TEAE SOC Immune system disorders: number of subjects | TEAE SOC Injury, poisoning and procedural complications: number of subjects | TEAE SOC Investigations: number of subjects | TEAE SOC Metabolism and nutrition disorders: number of subjects | TEAE SOC Musculoskeletal and connective tissue disorders: number of subjects | TEAE SOC Respiratory, thoracic and mediastinal disorders: number of subjects | TEAE SOC Skin and subcutaneous tissue disorders: number of subjects
4: TEAE PT Somnolence: number of subjects | TEAE SOC General disorders and administration site conditions: number of subjects
(6): TEAE PT Dysarthria: (%) of subjects | TEAE PT Feeling drunk: (%) of subjects | TEAE PT Headache: (%) of subjects | TEAE PT Paraesthesia: (%) of subjects | TEAE SOC Cardiac disorders: (%) of subjects
(20): TEAE PT Dizziness: (%) of subjects
(9): TEAE PT Derealisation: (%) of subjects | TEAE PT Nausea: (%) of subjects
14: TEAE SOC Nervous system disorders: number of subjects
